From patent US20260200943A1, “COMPOUNDS FOR TREATING CANCER” (Genesis Therapeutics, Inc., priority 2022, published 2026) come the findings set out here.

Format in all cases: biochemical
Assay [1] addresses T1, CDK1/CyclinB1 (Homo sapiens, UniProt P06493).
T1 construct: Wild-type, full length CDK1 in complex with wildtype, full length CyclinB1: Carna Cat #04-102; purchased Carna 04-102
In words: CDK1/CyclinB1 ChEF Assay (AQT, Table C). The conditions noted are these: 10xKm, read-out: CDK1/CCNB1 AQT AQT10xKm Ki: Average Ki. How it is done:
(§1) 16 nL of 1000× compound in 100% DMSO is added to a 384-well low volume, black assay plate. 12 μL of 1.3×CDK1/CyclinB1 (Wild-type, full length CDK1 in complex with wildtype, full length CyclinB1: Carna Cat #04-102) diluted in assay buffer (54 mM Hepes, 0.012% Brij-35, 10 mM MgCl2, 0.55 mM EGTA, 1% Glycerol, 0.02% BSA, and 1.2 mM DTT) is added to the plates on top of the compound and pre-incubated for 30 minutes at room temperature. Following the incubation, 4 uL of 4×Sox-chromophore (CSox) labeled peptide substrate (AQT0297, AssayQuant) & ATP diluted in assay buffer is added to the plate to initiate the reaction. The assay is incubated at room temperature for 120 min after initiation. The CSox peptide substrate is phosphorylated by CDK1/B1 upon ATP hydrolysis.
(§2) The fluorescent intensity measurement of the assay plate is read on a microplate reader once the assay is initiated and again at the completion of the assay. Phosphorylation of the CSox-based peptide substrate sensor results in an immediate increase in fluorescence. These raw fluorescence intensity values are normalized to calculate percent inhibition, which are fit to a four-parameter logistic curve and IC50 values are calculated. IC50 values are converted to Ki using substrate, KM^app values, and the Cheng-Prusoff equation.

For the next assay, the target named is CDK9/CyclinT1 (Homo sapiens, UniProt P50750). Kind of assay: CDK9/CyclinT1 ChEF Assay (Table A). Also on record: Wild-type, full length CDK9 in complex with wildtype, full length CyclinT1: Invitrogen Cat #PV4131; purchased Invitrogen PV4131. The conditions noted are these: 10xKm, read-out: CDK9/CCNT1 ChEF 10xKm Ki: Average Ki. Here is the method: 500 nL of 50× compound in 100% DMSO is added to a 384-well low volume, white assay plate. 19.5 μL of 1.3×CDK9/CyclinT1 (Wild-type, full length CDK9 in complex with wildtype, full length CyclinT1: Invitrogen Cat #PV4131) diluted in assay buffer (50 mM Hepes, 0.01% Brij-35, 10 mM MgCl2, 0.5 mM EGTA, 1% Glycerol, and 1.2 mM DTT) is added to the plates on top of the compound and pre-incubated for 30 minutes at room temperature. Following the incubation, 5 μL of 5×Sox-chromophore (CSox) labeled peptide substrate (AQT0449, AssayQuant) & ATP diluted in assay buffer is added to the plate to initiate the reaction. The assay is incubated at room temperature for 120 min after initiation. The CSox peptide substrate is phosphorylated by CDK9/T1 upon ATP hydrolysis.
The fluorescent intensity measurement of the assay plate for all assays described above is read on a microplate reader once the assay is initiated and again at the completion of the assay. Phosphorylation of the CSox-based peptide substrate sensor results in an immediate increase in fluorescence. These raw fluorescence intensity values are normalized to calculate percent inhibition, which are fit to a four-parameter logistic curve and IC50 values are calculated. IC50 values are converted to Ki using substrate, KM^app values, and the Cheng-Prusoff equation.

The target in assay [2] is T1, CDK1/CyclinB1. Kind of assay: CDK1/Cyclin B1 Mobility Shift Assay (Caliper, Table B). The conditions noted are these: read-out: CDK1/CCNB1 Caliper Ki: Average Ki. How it is done:
10 nL of 2000× compound in 100% DMSO is added to a 384-well polypropylene assay plate. 15 μL of 1.3×CDK1/B1 and 1.3× fluorescent substrate (Wild-type, full length CDK1 in complex with wildtype, full length CyclinB1: Carna Cat #04-102 and FL-Peptide 29: PerkinElmer Cat #760429) diluted in kinase buffer (50 mM Hepes, 0.01% Brij-35, 10 mM MgCl2, 1 mM EGTA, 0.05% BSA, and 2 mM DTT) is added to the plates on top of the compound, mixed, and pre-incubated for 30 minutes at room temperature. The fluorescently labeled peptide substrate is phosphorylated by CDK1/B1 upon ATP hydrolysis. Following the incubation, 5 μL of 4×ATP diluted in kinase buffer is added to the plate to initiate the reaction. Following the 30-minute incubation, the reaction is stopped by adding 75 μL of stopping buffer containing 0.5 M EDTA.
The assay plate is then read on a Lab Chip EZ Reader which separates the fluorescently labeled substrate and product peptides through a mobility difference. The phosphorylation of the substrate imparts a negative charge, which allows differences in separation as both are pulled through the microfluidic chip. The ratio of substrate and product values are used to generate percent conversion. These raw percent conversion values are normalized to calculate percent inhibition, which are fit to a four-parameter logistic curve and IC50 values are calculated. IC50 values are converted to Ki using substrate, Kmapp values, and the Cheng-Prusoff equation.

Another assay concerns the target T2, CDK2/CyclinA2 (Homo sapiens, UniProt P24941).
T2 construct: Wild-type, full length CDK2 in complex with wildtype, full length CyclinA2: Carna Cat #04-103; purchased Carna 04-103
Kind of assay: CDK2/CyclinA2 ChEF Assay (AQT, Table C). The conditions noted are these: 10xKm. How it is done: as §1, with “1.3×CDK2/CyclinA2” for “1.3×CDK1/CyclinB1”, “CDK2” for “CDK1”, “CyclinA2:” for “CyclinB1:”, “#04-103” for “#04-102)”, “90” for “120”, “CDK2/A2” for “CDK1/B1”
as §2

T1 sequence (P06493 whole entry): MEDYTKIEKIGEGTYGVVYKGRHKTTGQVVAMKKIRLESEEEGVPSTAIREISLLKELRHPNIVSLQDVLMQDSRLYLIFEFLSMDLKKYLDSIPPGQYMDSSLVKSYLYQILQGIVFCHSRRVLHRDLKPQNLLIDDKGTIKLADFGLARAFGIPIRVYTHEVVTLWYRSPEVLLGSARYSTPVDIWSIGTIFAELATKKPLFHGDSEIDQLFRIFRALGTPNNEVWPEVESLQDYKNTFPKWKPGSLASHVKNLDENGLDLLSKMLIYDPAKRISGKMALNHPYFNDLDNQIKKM
T1 sequence (P14635 whole entry partner): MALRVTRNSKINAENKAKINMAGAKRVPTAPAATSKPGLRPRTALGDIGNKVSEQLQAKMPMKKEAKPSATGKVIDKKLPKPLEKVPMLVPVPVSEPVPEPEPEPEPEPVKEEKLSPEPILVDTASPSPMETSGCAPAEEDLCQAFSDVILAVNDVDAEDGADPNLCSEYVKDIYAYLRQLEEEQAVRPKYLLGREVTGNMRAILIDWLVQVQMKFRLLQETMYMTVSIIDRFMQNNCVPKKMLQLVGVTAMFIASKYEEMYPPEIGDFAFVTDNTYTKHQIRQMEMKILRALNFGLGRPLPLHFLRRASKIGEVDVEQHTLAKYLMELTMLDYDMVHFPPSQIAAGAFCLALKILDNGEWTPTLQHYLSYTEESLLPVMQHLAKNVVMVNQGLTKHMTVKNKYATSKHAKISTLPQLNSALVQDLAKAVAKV
Sequence of CDK9/CyclinT1 (P50750 whole entry): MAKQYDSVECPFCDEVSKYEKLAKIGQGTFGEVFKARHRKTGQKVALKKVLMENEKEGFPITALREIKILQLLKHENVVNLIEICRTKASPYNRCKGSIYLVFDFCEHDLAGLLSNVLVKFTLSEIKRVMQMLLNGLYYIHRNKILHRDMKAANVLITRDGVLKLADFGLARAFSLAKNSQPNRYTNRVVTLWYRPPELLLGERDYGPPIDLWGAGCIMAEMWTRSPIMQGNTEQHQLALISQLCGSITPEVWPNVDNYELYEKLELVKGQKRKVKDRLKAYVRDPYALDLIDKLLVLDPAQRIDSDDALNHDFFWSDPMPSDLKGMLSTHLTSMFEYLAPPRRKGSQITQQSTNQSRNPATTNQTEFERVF
Sequence of CDK9/CyclinT1 (O60563 whole entry partner): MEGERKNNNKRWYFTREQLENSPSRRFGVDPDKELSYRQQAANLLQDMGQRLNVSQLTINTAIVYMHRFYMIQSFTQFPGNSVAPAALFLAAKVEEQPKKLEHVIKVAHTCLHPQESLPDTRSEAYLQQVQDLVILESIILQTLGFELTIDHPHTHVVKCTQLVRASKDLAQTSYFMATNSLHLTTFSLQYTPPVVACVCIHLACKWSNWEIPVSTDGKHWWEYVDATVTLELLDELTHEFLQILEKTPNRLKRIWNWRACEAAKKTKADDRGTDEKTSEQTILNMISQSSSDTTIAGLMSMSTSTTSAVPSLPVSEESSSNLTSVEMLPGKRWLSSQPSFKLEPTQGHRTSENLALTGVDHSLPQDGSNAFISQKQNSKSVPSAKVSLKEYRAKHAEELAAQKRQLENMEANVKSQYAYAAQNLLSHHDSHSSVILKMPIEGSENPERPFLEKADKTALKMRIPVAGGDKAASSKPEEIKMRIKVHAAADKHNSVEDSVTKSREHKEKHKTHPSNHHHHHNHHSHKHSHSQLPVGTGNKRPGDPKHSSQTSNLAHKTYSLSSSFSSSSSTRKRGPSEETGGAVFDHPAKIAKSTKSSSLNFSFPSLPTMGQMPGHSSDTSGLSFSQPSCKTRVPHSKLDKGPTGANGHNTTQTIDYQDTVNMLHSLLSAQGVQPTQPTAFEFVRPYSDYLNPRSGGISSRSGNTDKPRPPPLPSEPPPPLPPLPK

In the case of `O=C1NCCCCCCn2cc(cn2)S(=O)(=O)N2CCC(CC2)Nc2cc([nH]n2)[C@H]2CC[C@H](C2)O1` [Compound 97, (1^1S,1^3R,2^4Z,6^4E)-2^1H,6^1H-15-oxa-5-thia-3,13-diaza-4(4,1)-piperidina-2(5,3),6(4,1)-dipyrazola-1(1,3)-cyclopentanacyclopentadecaphan-14-one 5,5-dioxide], the Ki at CDK1/CyclinB1 [1] was 0.001 to 0.025 µM; on CDK9/CyclinT1, at least 0.1 µM; at CDK1/CyclinB1 [2], 0.001 to 0.025 µM; on CDK2/CyclinA2 (AQT ChEF, read-out: CDK2/CCNA2 AQT10xKm Ki: Average Ki), below 0.001 µM. The “CDK2/CCNA2 AQT10xKm Ki: CDK2/A2 Selectivity over CDK1/B1” value at CDK2/CyclinA2 (AQT, selectivity over CDK1/B1) is reported as “A (A>10)”. The “CDK2/CCNA2 AQT10xKm Ki: CDK2/A2 Selectivity over CDK9” value at CDK2/CyclinA2 (AQT, selectivity over CDK9) is “A (A>10)”.
